Assay results reported in the supplement of paper PMC10307832.

Legend:
Experiment in all cases: relative viability (nuclei count vs DMSO), 5 days (fraction); higher = more cells survive
[1] = compound: C1CNCCC1C2=CC(=NN2)C3=CC=NC=C3 + N=C(N)NC(=N)NCCc1ccccc1 [Phenformin] (partner 250 µM)
In short: (§1)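 Medians of duplicate plates are given as relative viability. That measure is the nuclei count in treated wells divided by the count in vehicle wells. Counts were taken on 4× images of lung cancer cell lines in 1536-well plates, 5 days after pin-tool dosing the day after seeding with one drug alone or a fixed anchor-drug dose plus five library-drug doses (not always all listed) in √10 steps.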

[2] = compound: C[C@@H](N)c1ccc(C(=O)Nc2ccnc3[nH]ccc23)cc1 + C[C@@H](Oc1cc(-c2cnn(C3CCNCC3)c2)cnc1N)c1c(Cl)ccc(F)c1Cl [Crizotinib] (partner 1 µM)
In short: as §1

[3] = compound: C[C@@H](N)c1ccc(C(=O)Nc2ccnc3[nH]ccc23)cc1 + N=C(N)NC(=N)NCCc1ccccc1 [Phenformin] (partner 250 µM)
In short: as §1

Tanzisertib + Tozasertib = compound: O[C@H]1CC[C@H](Nc2ncc3nc(Nc4c(F)cc(F)cc4F)n([C@H]4CCOC4)c3n2)CC1 [Tanzisertib] + Cc1cc(Nc2cc(N3CCN(C)CC3)nc(Sc3ccc(NC(=O)C4CC4)cc3)n2)n[nH]1 [Tozasertib] (partner 0.1 µM)
In short: as §1

Cell Line	relative viability ([1]; first compound 0.08 µM)	relative viability ([1]; first compound 0.8 µM)	relative viability ([1]; first compound 2.53 µM)	relative viability ([1]; first compound 8 µM)	relative viability ([2]; first compound 0.04 µM)	relative viability ([2]; first compound 0.1265 µM)	relative viability ([2]; first compound 0.4 µM)	relative viability ([2]; first compound 4 µM)	relative viability ([3]; first compound 0.04 µM)	relative viability ([3]; first compound 0.1265 µM)	relative viability ([3]; first compound 0.4 µM)	relative viability ([3]; first compound 1.265 µM)	relative viability ([3]; first compound 4 µM)	relative viability (Tanzisertib + Tozasertib; first compound 0.08 µM)	relative viability (Tanzisertib + Tozasertib; first compound 0.253 µM)	relative viability (Tanzisertib + Tozasertib; first compound 0.8 µM)	relative viability (Tanzisertib + Tozasertib; first compound 2.53 µM)	relative viability (Tanzisertib + Tozasertib; first compound 8 µM)	relative viability ([2]; first compound 1.265 µM)
NCI-H1355	0.482	0.463	0.49	0.456	1.04	1.09	1.19	0.941	0.393	0.469	0.498	0.436	0.388	0.526	0.562	0.576	0.528	0.405	
EKVX	0.269	0.209	0.255	0.209	0.979	1.03	1.04	0.963	0.228	0.245	0.241	0.124	0.222	0.403	0.395	0.407	0.36	0.377	1.05
NCI-H441	0.634	0.947	0.831	0.753	0.807	0.764	0.749	0.565	0.879	0.995	0.879		0.74	0.568	0.71	0.512	0.422	0.698	0.948
NCI-H1975	0.406	0.412	0.415	0.417	1.02	0.961	0.944	0.727	0.359	0.405	0.39	0.347	0.255	0.845	0.762	0.838	0.668	0.458	0.873
HCC-78	0.695	0.56	0.68	0.719	0.383	0.347	0.363	0.32	1.05	0.818	0.855	0.797	0.797	0.493	0.392	0.422	0.389	0.329	0.453
NCI-H2085	0.744	0.418	0.801	0.817	0.914	0.917	0.786	0.718	0.628	0.77	0.778	0.359	0.636	0.9	0.822	0.914	0.644	0.59	0.749
H3255	0.366	0.323	0.429	0.434	0.862	0.979	1.04	0.761	0.396	0.332	0.337	0.348	0.322	0.736	0.607	0.675	0.588	0.427	0.972
NCI-H2087	0.459	0.479	0.496	0.479	0.824	0.538	0.581	0.386	0.497	0.571	0.554		0.557	0.238	0.287	0.277	0.209	0.202	0.788
LC-2-ad		0.676	0.639	0.612	0.43	0.486	0.501	0.409	0.549	0.599	0.609		0.558	0.479	0.412	0.495	0.415	0.34	0.438
PC-3 [JPC-3]	0.499	0.447	0.494	0.463	0.969	0.931	1.01	0.917	0.473	0.495	0.477	0.474	0.456	0.903	0.99	0.943	0.852	0.781	1.1
EBC-1					0.216	0.184	0.189	0.145											0.141
HCC-15	0.401	0.54	0.494	0.469	0.903	0.781	0.805	0.72	0.447	0.465	0.437		0.424	0.535	0.294	0.391	0.4	0.27	
NCI-H1563	0.619	0.642	0.679	0.673	0.981	0.794	0.753	0.934	0.623	0.74	0.632	0.687	0.641						0.883
COR-L 105	0.541	0.419	0.508	0.528	0.721	0.747	0.652	0.408	0.446	0.492	0.523	0.423	0.377	0.386	0.366	0.323	0.388	0.331	0.537
NCI-H520	0.439	0.309	0.758	0.908	0.824	0.852	0.801	0.804	0.635	0.603	0.702	0.404	0.656	0.411	0.464	0.403	0.428	0.414	1.05
LU99A	0.748	0.877	0.956	0.874	0.55	0.558	0.58	0.47		0.924	0.768	0.605	0.635	0.256	0.284	0.276	0.259	0.298	0.462
NCI-H1666	0.571	0.587	0.561	0.553	1.12	0.967	1.22	1.33	0.534	0.603	0.651	0.631	0.561	0.609	0.698	0.611	0.656	0.592	1.16
NCI-H2170	0.433	0.394	0.456	0.441	1.21	1.08	1.18	1.08	0.401	0.442	0.492	0.353	0.38	0.881	0.789	0.669	0.717	0.651	1.21
NCI-H522	0.552	0.657	0.771	0.689					0.69	0.549	0.668	0.591	0.402	0.578	0.458	0.555	0.572	0.545	
LCLC-97TM1	0.328	0.511	0.437	0.396	0.32	0.322	0.463	0.638	0.418	0.458	0.521	0.365	0.427	0.252	0.199	0.207	0.207	0.179	0.961
NCI-H1299					0.905	0.911	0.845	0.713											0.845

Cell Line	relative viability ([1]; first compound 0.08 µM)	relative viability ([1]; first compound 0.8 µM)	relative viability ([1]; first compound 2.53 µM)	relative viability ([1]; first compound 8 µM)	relative viability ([2]; first compound 0.04 µM)	relative viability ([2]; first compound 0.1265 µM)	relative viability ([2]; first compound 0.4 µM)	relative viability ([2]; first compound 4 µM)	relative viability ([3]; first compound 0.04 µM)	relative viability ([3]; first compound 0.1265 µM)	relative viability ([3]; first compound 0.4 µM)	relative viability ([3]; first compound 1.265 µM)	relative viability ([3]; first compound 4 µM)	relative viability (Tanzisertib + Tozasertib; first compound 0.08 µM)	relative viability (Tanzisertib + Tozasertib; first compound 0.253 µM)	relative viability (Tanzisertib + Tozasertib; first compound 0.8 µM)	relative viability (Tanzisertib + Tozasertib; first compound 2.53 µM)	relative viability (Tanzisertib + Tozasertib; first compound 8 µM)	relative viability ([2]; first compound 1.265 µM)
NCI-H3122	0.329	0.414	0.402	0.364	0.286	0.295	0.264	0.303	0.352	0.413	0.39		0.377	0.465	0.393	0.497	0.399	0.377	0.346
NCI-H1395	0.419	0.342	0.419	0.497					0.433	0.497	0.436	0.36	0.453	0.869	0.773	0.783	0.687	0.712	
NCI-H2009	0.481	0.528	0.51	0.489	1.05	0.954	0.825	0.644	0.473	0.531	0.468	0.443	0.435	0.804	0.72	0.775	0.754	0.661	0.808
NCI-H1651	0.351	0.3	0.333	0.344	0.921	0.822	0.916	0.837	0.426	0.315	0.312	0.372	0.301	0.711	0.707	0.637	0.689	0.557	0.898
HARA	0.516	0.403	0.43	0.491	1.18	1.13	1.21	0.735		0.481	0.495		0.355	0.136	0.112	0.109	0.0917	0.103	0.835
NCI-H1944	0.18	0.185	0.209	0.173	1.12	1.1	1.12	0.94	0.157	0.216	0.153	0.165	0.138	0.289	0.25	0.237	0.223	0.242	
NCI-H2347	0.398	0.225	0.412	0.48	0.668	0.775	0.776	0.605	0.502	0.532	0.546		0.584	0.569		0.664	0.682	0.365	0.714
201T	0.434	0.464	0.461	0.415	1.02	1.02	0.959	1.1	0.427	0.442	0.462	0.428	0.473	0.989	0.923	0.943	0.866	0.875	1.09
PC-14	0.529	0.684	0.743	0.579	0.846	0.871	0.921	0.657	0.409	0.653	0.555	0.348	0.519	0.652	0.605	0.54	0.537	0.499	0.8
Calu-6					0.761	0.76	0.741	0.489											0.682
NCI-H1703					0.565	0.611	0.641	0.71											0.577
NCI-H1650	0.287	0.442	0.428	0.356	1.04	1.12	1.04	0.763	0.434	0.463	0.345	0.331	0.421	0.392	0.433	0.399	0.359	0.294	0.911
NCI-H2342	0.512	0.501	0.688	0.631					0.718	0.731	0.676	0.718	0.622	0.584	0.481	0.63	0.523	0.581	
NCI-H1792	0.231	0.237	0.38	0.227	0.964	0.976	1.08	0.854	0.286		0.15	0.278	0.357						0.916
NCI-H1623	0.6	0.502	0.642	0.637					0.637	0.528	0.415	0.29	0.622	0.482	0.414	0.482	0.47	0.405	
SW 900	0.64	0.548	0.738	0.628					0.852	0.687	0.512	0.618	0.531	0.686	0.528	0.603	0.501	0.544	
NCI-H1648														0.418	0.564	0.467	0.398	0.597	
NCI-H1793	0.307	0.162	0.441	0.426					0.355	0.424	0.421		0.393	0.289	0.287	0.303	0.246	0.223	
IA-LM					1.02	0.937	1.17	0.938											1.08
A549	0.107	0.153	0.199	0.156	0.833	0.793	0.734	0.268	0.0717	0.256	0.279		0.164						0.504
